In patent US11130793B2, “GLP-1/GLP-2 dual agonists” (Zealand Pharma A/S, priority 2016, dated 2021):
Read-outs that look alike come from different tables or passages of the source. Blank lines part the entries; values can stand above or below the molecule they belong to. Square brackets hold non-standard residues; d marks the D form. Peptide text beside a SMILES is read from it. Aib = CC(C)(N)C(=O)O

Columns and labels:
human GLP-1 receptor = target: T1, human GLP-1 receptor (Homo sapiens, UniProt P43220); assay: GLP-1 receptor potency assay (cAMP AlphaScreen, HEK293 cells stably expressing GLP-1R); format: cell-based
T1 construct: expressed in transfected cells
Procedure, shortened: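 cAMP accumulation was quantified by AlphaScreen in G418-selected HEK293 cells stably transfected with human GLP-1R cDNA. Concentration-response data were normalized between vehicle and positive control. EC50 and maximal response came from 4PL curve fitting.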

human GLP-2 receptor [1] = target: T2, human GLP-2 receptor (Homo sapiens, UniProt O95838, D470N); assay: GLP-2 receptor potency assay (cAMP AlphaScreen, HEK293 cells stably expressing GLP-2R); format: cell-based; settings: cAMP response, HEK293 cells expressing human GLP-2R
T2 sequence (O95838 1-553 D470N): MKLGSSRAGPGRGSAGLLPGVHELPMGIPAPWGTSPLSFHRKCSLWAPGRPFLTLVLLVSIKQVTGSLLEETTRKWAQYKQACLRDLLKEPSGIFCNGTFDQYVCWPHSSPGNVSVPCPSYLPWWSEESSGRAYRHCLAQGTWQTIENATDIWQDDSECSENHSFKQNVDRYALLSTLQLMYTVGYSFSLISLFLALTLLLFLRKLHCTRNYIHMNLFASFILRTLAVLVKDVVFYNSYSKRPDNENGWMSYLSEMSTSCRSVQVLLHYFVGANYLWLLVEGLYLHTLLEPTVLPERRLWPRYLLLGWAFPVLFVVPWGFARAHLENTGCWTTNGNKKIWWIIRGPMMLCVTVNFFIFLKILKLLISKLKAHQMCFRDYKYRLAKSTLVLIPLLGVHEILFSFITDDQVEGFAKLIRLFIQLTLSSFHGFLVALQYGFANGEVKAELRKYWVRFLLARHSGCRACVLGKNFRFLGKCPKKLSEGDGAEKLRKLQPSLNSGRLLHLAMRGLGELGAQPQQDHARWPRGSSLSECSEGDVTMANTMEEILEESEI
Procedure, shortened: (§1)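 EC50 and maximal response were fitted with a 4PL model after normalization to positive control and vehicle. cAMP accumulation was quantified by AlphaScreen in a stable HEK293 clone transfected with human GLP-2 receptor.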

[2] = Solubility assessment by turbidity absorbance at 325 nm; format: physicochemical; settings: 1 mg/ml peptide
Description: A stock solution of the test peptide (2 mg/ml; determined from the weighed amount of peptide) in demineralized water adjusted to pH 2.5 with HCl was prepared, and aliquots were diluted 1:1 in 100 mM acetate buffer (pH 4.0 and pH 5.0), 100 mM histidine buffer (pH 6.0 and pH 7.0) and 100 mM phosphate buffer (pH 6.0, pH 7.0 and pH7.5), respectively, and loaded in a standard flat-bottom, non-sterile 96-well UV Microplate. The absorbance of samples (single samples, n=1) at 280 and 325 nm was measured in an absorbance-based plate reader, which was preheated to ambient temperature (typically 25° C.).

[3] = test system: Normal chow-fed C57BL/6J male mice; assay: Effect on fasting glucose and intestinal weight in normal mice; format: in vivo
Description: Normal chow-fed C57BL/6J male mice were used. The mice were kept in standard housing conditions, light-, temperature-, and humidity-controlled room (12:12 h light-dark cycle, with lights on at 06.00-18.00 h; 20-22° C.; 50-80% relative humidity). Each dosing group consisted of 6 animals. Mice were dosed once daily with 250 nmol/kg with the test compounds or vehicle for 4 days via subcutaneous administration.
On day 0 mice were fasted and blood glucose levels measured after a single s.c. injection with peptides. Animals were sacrificed 24 hours after final dosing on day 3, and small intestinal wet weights were measured.

human GLP-2 receptor [4] = target: T3, human GLP-2 receptor (Homo sapiens, UniProt O95838); assay: GLP-2 receptor potency assay (cAMP AlphaScreen, HEK293 cells stably expressing GLP-2R); format: cell-based
T3 sequence (O95838 1-553 D470N): T2 sequence (O95838 1-553 D470N)
Procedure, shortened: as §1

[5] = Chemical stability, RP-HPLC main peak area-% after incubation at 40° C.; format: physicochemical; settings: pH 7, 40° C., 14 day incubation, 0.2 mg/ml, normalized purity
Description: Samples of each test peptide were dissolved in MilliQ™ water, and the pH of the solution was adjusted to pH 6, 7, 7.5 or 9 using either HCl or NaOH. The final peptide concentration was 0.2 mg/ml. Samples were placed in glass vials and incubated at 40° C. The samples were analyzed by RP-HPLC on a C18 column with gradient elution using an acetonitrile/TFA/water eluent system. The area-percentage (area-%) of the main peak after incubation time T=t (relative to time T=0) was determined by UV spectroscopy at 220 nm.
The purity was first determined as follows: Purity (area-%)=(area of main peak/total area of all peaks)×100.
The purity was then normalized between time points by setting purity at time 0 (T=0) to 100 for each pH value for a given peptide, as follows: Normalised area-% at time t (T=t)=[area-% (T=t)/area-% (T=0)]×100.
The chemical stability assessment results after 14 day incubation (in the form of normalized purity values) are summarized in Table 4.

[6] = target: human glucagon-like peptide 1 receptor (GLP-1R) (human) (UniProt P43220)

T1 sequence (P43220 24-463): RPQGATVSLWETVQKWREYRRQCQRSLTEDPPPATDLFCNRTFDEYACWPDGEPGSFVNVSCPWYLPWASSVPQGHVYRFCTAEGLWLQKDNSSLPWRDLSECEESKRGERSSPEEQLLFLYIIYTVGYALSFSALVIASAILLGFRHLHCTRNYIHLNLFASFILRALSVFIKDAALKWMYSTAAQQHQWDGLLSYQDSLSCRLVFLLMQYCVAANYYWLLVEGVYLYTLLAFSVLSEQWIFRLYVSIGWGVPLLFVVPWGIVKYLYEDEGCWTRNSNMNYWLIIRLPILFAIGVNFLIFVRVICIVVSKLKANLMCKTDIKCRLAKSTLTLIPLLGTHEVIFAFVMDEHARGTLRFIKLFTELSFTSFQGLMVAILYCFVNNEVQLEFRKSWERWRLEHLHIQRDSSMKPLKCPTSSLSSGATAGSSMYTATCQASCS

EC50 (human GLP-1 receptor; cAMP response, HEK293 cells expressing human GLP-1R, read-out: EC50 GLP-1): 0.0098 nM
EC50 (human GLP-2 receptor [1]): 0.067 nM
solubility ([2]; 100 mM acetate buffer pH 4.0, ambient temperature, read-out: Solubility, Acetate buffer pH 4): ≥ 1000 µg/mL
solubility ([2]; 100 mM acetate buffer pH 5.0, ambient temperature, read-out: Solubility, Acetate buffer pH 5): < 1000 µg/mL
solubility ([2]; 100 mM histidine buffer pH 6.0, ambient temperature, read-out: Solubility, Histidine buffer pH 6): ≥ 1000 µg/mL
solubility ([2]; 100 mM histidine buffer pH 7.0, ambient temperature, read-out: Solubility, Histidine buffer pH 7): ≥ 1000 µg/mL
solubility ([2]; 100 mM phosphate buffer pH 6.0, ambient temperature, read-out: Solubility, Phosphate buffer pH 6): ≥ 1000 µg/mL
solubility ([2]; 100 mM phosphate buffer pH 7.0, ambient temperature, read-out: Solubility, Phosphate buffer pH 7): ≥ 1000 µg/mL
solubility ([2]; 100 mM phosphate buffer pH 7.5, ambient temperature, read-out: Solubility, Phosphate buffer pH 7.5): ≥ 1000 µg/mL
Molecule: CC[C@H](C)[C@H](NC(=O)[C@H](Cc1ccccc1)NC(=O)[C@H](CC(=O)O)NC(=O)[C@H](CCCNC(=N)N)NC(=O)[C@H](C)NC(=O)[C@H](C)NC(=O)[C@H](CCC(N)=O)NC(=O)[C@H](CCC(=O)O)NC(=O)[C@H](CC(=O)O)NC(=O)[C@H](CC(C)C)NC(=O)[C@@H](NC(=O)[C@@H](NC(=O)[C@H](C)NC(=O)[C@H](CC(C)C)NC(=O)[C@H](CCC(=O)O)NC(=O)[C@H](CO)NC(=O)[C@@H](NC(=O)[C@H](Cc1ccccc1)NC(=O)[C@@H](NC(=O)CNC(=O)[C@H](CCC(=O)O)NC(=O)C(C)(C)NC(=O)[C@@H](N)Cc1c[nH]cn1)[C@@H](C)O)[C@@H](C)O)[C@@H](C)O)[C@@H](C)CC)C(=O)N[C@@H](C)C(=O)N[C@@H](Cc1c[nH]c2ccccc12)C(=O)N[C@@H](CC(C)C)C(=O)N[C@H](C(=O)N[C@@H](CCC(=O)O)C(=O)N[C@@H](Cc1c[nH]cn1)C(=O)N[C@@H](CCCCN)C(=O)N[C@H](C(=O)N[C@H](C(=O)N[C@@H](CC(=O)O)C(=O)O)[C@@H](C)O)[C@@H](C)CC)[C@@H](C)CC [Compound 5] (H-H[Aib]EGTFTSELATILDEQAARDFIAWLIEHKITD-OH)
Small intestinal wet weight ([3]; 250 nmol/kg s.c. once daily for 4 days, sacrificed 24 hours after final dosing): 0.90 g
Fasting blood glucose ([3]; day 0, fasted mice, after a single s.c. injection, 250 nmol/kg): 5.43 mM

Molecule: CC[C@H](C)[C@H](NC(=O)[C@H](CC(C)C)NC(=O)[C@H](Cc1c[nH]c2ccccc12)NC(=O)[C@H](C)NC(=O)[C@@H](NC(=O)[C@H](Cc1ccccc1)NC(=O)[C@H](CCC(=O)O)NC(=O)[C@H](CCCNC(=N)N)NC(=O)[C@H](CO)NC(=O)[C@H](C)NC(=O)[C@H](CCC(N)=O)NC(=O)[C@H](CCC(=O)O)NC(=O)[C@H](CCC(=O)O)NC(=O)[C@H](CC(C)C)NC(=O)[C@@H](NC(=O)[C@@H](NC(=O)[C@H](CO)NC(=O)[C@H](CC(C)C)NC(=O)[C@H](CCC(=O)O)NC(=O)[C@H](CO)NC(=O)[C@H](CO)NC(=O)[C@H](Cc1ccccc1)NC(=O)[C@@H](NC(=O)CNC(=O)[C@H](CCC(=O)O)NC(=O)C(C)(C)NC(=O)[C@@H](N)Cc1c[nH]cn1)[C@@H](C)O)[C@@H](C)O)[C@@H](C)CC)[C@@H](C)CC)C(=O)N[C@@H](C)C(=O)N[C@@H](Cc1c[nH]cn1)C(=O)N[C@@H](CCCCN)C(=O)N[C@H](C(=O)N[C@H](C(=O)N[C@@H](CCC(=O)O)C(=O)O)[C@@H](C)O)[C@@H](C)CC [Compound 39] (H-H[Aib]EGTFSSELSTILEEQASREFIAWLIAHKITE-OH)
EC50 (human GLP-1 receptor): 0.03 nM
EC50 (human GLP-2 receptor [4]): 0.96 nM

Molecule: H-HGEGTFTSELATILDEQAARDFIAWLIAHKITD-OH [Compound 38]
EC50 (human GLP-1 receptor): 0.008 nM
EC50 (human GLP-2 receptor [4]): 0.043 nM
pH 7 normalised stability [5]: C (<80% normalized stability)

EC50 GLP-1 (nM); cAMP AlphaScreen [6]: 0.029 nM
Molecule: Liraglutide (NN2211; Victoza) (peptide)
